# Tests used:
# [1] = Selectivity index, ratio of MIC of […] Staphylococcus aureus ATCC 29213 to MIC of Clostridium difficile ATCC 43255; type: functional
# [2] = tested on: Clostridioides difficile; test: Antibacterial activity against Clostridium difficile ATCC 43255 assessed as reduction in bacterial growth measured after 48 hrs by CLSI based broth microdilution method; type: functional
# [3] = Plasma concentration in CD1 mouse at 20 mg/kg, po measured upto 8 hrs by LC-MS/MS analysis; type: ADME, organism-based; conditions: in vivo, BLD = below limit of detection
# [4] = Drug excretion in CD1 mouse feces at 20 mg/kg, po measured upto 8 hrs by LC-MS/MS analysis; type: ADME, organism-based; conditions: in vivo
# [5] = Ratio of drug excretion in CD-1 mouse feces to MIC for antibacterial activity against Clostridium difficile ATCC 43255; type: toxicity; conditions: in vivo
# [6] = tested on: Staphylococcus aureus; test: Antibacterial activity against […] Staphylococcus aureus ATCC 29213 assessed as reduction in bacterial growth measured after 48 hrs by CLSI based broth microdilution method; type: functional
# [7] = tested on: HeLa; test: Cytotoxicity against human HeLa cells assessed as reduction in cell viability at 64 ug/ml incubated for 16 hrs by XTT assay; type: cell-based; conditions: dose 64 µg/ml
# [8] = tested on: Bacteroides fragilis; test: Antibacterial activity against gut Bacteroides fragilis HM-709 assessed as reduction in bacterial growth measured after 48 hrs by CLSI based broth microdilution method; type: organism-based; conditions: in vitro
# [9] = tested on: Veillonella; test: Antibacterial activity against gut Veillonella sp HM-49 assessed as reduction in bacterial growth measured after 48 hrs by CLSI based broth microdilution method; type: organism-based; conditions: in vitro
# [10] = tested on: Corynebacterium; test: Antibacterial activity against gut Corynebacterium HM-784 assessed as reduction in bacterial growth measured after 48 hrs by CLSI based broth microdilution method; type: organism-based
# [11] = tested on: Lactobacillus gasseri; test: Antibacterial activity against gut Lactobacillus gasseri HM-664 assessed as reduction in bacterial growth measured after 48 hrs by CLSI based broth microdilution method; type: organism-based; conditions: in vitro
# [12] = tested on: Fusobacterium nucleatum; test: Antibacterial activity against gut Fusobacterium nucleatum HM-992 assessed as reduction in bacterial growth measured after 48 hrs by CLSI based broth microdilution method; type: organism-based; conditions: in vitro
# [13] = tested on: Eubacterium sp.; test: Antibacterial activity against gut Eubacterium sp. HM-178 assessed as reduction in bacterial growth measured after 48 hrs by CLSI based broth microdilution method; type: organism-based
# [14] = Antibacterial activity against gut Limosilactobacillus-reuteri HM-102 assessed as reduction in bacterial growth measured after 48 hrs by CLSI based broth microdilution method
# [15] = tested on: Bifidobacterium longum; test: Antibacterial activity against gut Bifidobacterium longum HM-846 assessed as reduction in bacterial growth measured after 48 hrs by CLSI based broth microdilution method; type: organism-based
# [16] = tested on: HeLa; test: Cytotoxicity against human HeLa cells assessed as reduction in cell viability incubated for 16 hrs by XTT assay; type: cell-based
# [17] = tested on: HeLa; test: Cytotoxicity against human HeLa cells assessed as reduction in cell viability at 128 ug/ml incubated for 16 hrs by XTT assay; type: cell-based; conditions: dose 128 µg/ml
compound,measurement,setting,value
O=C(Nc1ncco1)c1cc(Oc2cccc(F)c2)ccn1,Ratio,[1],> 256
same,MIC,[2],1 µg/mL
same,Cp,[3],Bld
same,Drug excretion,[4],2.4 µg/g
same,Ratio,[5],2.4
same,MIC,[6],≥ 256 µg/mL
O=C(Nc1ncco1)c1cc(-c2ccc(F)c(F)c2)ccn1,Activity,[7],Non-Toxic
same,Ratio,[1],256
same,MIC,[2],0.5 µg/mL
same,MIC,[6],128 µg/mL
O=C(O)c1ccc2oc(NC(=O)c3cc(Oc4ccc(F)c(F)c4)ccn3)nc2c1 [listing 1 of 2 here],MIC,[2],0.5 µg/mL
same,MIC,[6],64 µg/mL
O=C(Nc1ncco1)c1cc(Oc2ccc(OC(F)(F)F)cc2)ccn1,Ratio,[1],128
same,MIC,[2],1 µg/mL
same,MIC,[6],128 µg/mL
O=C(O)c1ccc2oc(NC(=O)c3cc(Oc4ccc(F)c(F)c4)ccn3)nc2c1 [listing 2 of 2 here],Ratio,[1],128
O=C(Nc1ncco1)c1cc(Oc2ccc(SC(F)(F)F)cc2)ccn1,Ratio,[1],> 256
same,MIC,[2],1 µg/mL
same,MIC,[6],≥ 256 µg/mL
O=C([O-])c1ccc2oc(NC(=O)c3cc(Oc4cccc(OC(F)(F)F)c4)ccn3)nc2c1.[Na+],MIC,[8],4 µg/mL
same,MIC,[9],16 µg/mL
same,MIC,[10],8 µg/mL
same,MIC,[11],> 16 µg/mL
same,MIC,[12],4 µg/mL
same,Ratio,[1],128
same,MIC,[13],16 µg/mL
same,MIC,[2],0.125 µg/mL
same,MIC,[14],4 µg/mL
same,Cp,[3],Bld
same,MIC,[15],16 µg/mL
same,Drug excretion,[4],13 µg/g
same,Ratio,[5],108
same,MIC,[6],16 µg/mL
Cc1ncc([N+](=O)[O-])n1CCO [METRONIDAZOLE],MIC,[8],1 µg/mL
same,MIC,[9],2 µg/mL
same,MIC,[10],> 32 µg/mL
same,MIC,[11],> 32 µg/mL
same,MIC,[12],2 µg/mL
same,MIC,[13],1 µg/mL
same,MIC,[14],> 32 µg/mL
same,MIC,[15],1 µg/mL
O=C(Nc1ncco1)c1cc(-c2cccc(C(F)(F)F)c2)ccn1,Ratio,[1],128
same,MIC,[2],0.5 µg/mL
same,MIC,[6],64 µg/mL
CCc1c(Cl)c(O)c(Cl)c(O)c1C(=O)O[C@H]1[C@H](O)[C@H](OC)[C@H](OC/C2=C\C=C\C[C@H](O)/C(C)=C/[C@H](CC)[C@@H](O[C@@H]3OC(C)(C)[C@@H](OC(=O)C(C)C)[C@H](O)[C@@H]3O)/C(C)=C/C(C)=C/C[C@@H]([C@@H](C)O)OC2=O)O[C@@H]1C [FIDAXOMICIN],MIC,[8],> 32 µg/mL
same,MIC,[9],8 µg/mL
same,MIC,[10],< 0.0625 µg/mL
same,MIC,[11],2 µg/mL
same,MIC,[12],< 0.0625 µg/mL
same,MIC,[13],16 µg/mL
same,MIC,[2],0.0625 µg/mL
same,MIC,[14],> 32 µg/mL
same,MIC,[15],< 0.01 µg/mL
O=C(Nc1ncco1)c1cc(Oc2cccc(OC(F)(F)F)c2)ccn1,MIC,[8],8 µg/mL
same,MIC,[9],16 µg/mL
same,MIC,[10],> 16 µg/mL
same,MIC,[11],> 16 µg/mL
same,MIC,[12],8 µg/mL
same,Ratio,[1],64
same,MIC,[13],8 µg/mL
same,MIC,[2],1 µg/mL
same,MIC,[14],4 µg/mL
same,Cp,[3],Bld
same,MIC,[15],16 µg/mL
same,Drug excretion,[4],49 µg/g
same,Ratio,[5],49
same,MIC,[6],64 µg/mL
O=C(Nc1ncco1)c1cc(-c2cc(F)cc(F)c2)ccn1,IC50,[16],40.1 µg/mL
same,Ratio,[1],64
same,MIC,[2],1 µg/mL
same,MIC,[6],64 µg/mL
O=C([O-])c1ccc2oc(NC(=O)c3cc(Oc4ccc(F)c(F)c4)ccn3)nc2c1.[Na+],Activity,[17],Non-Toxic
same,MIC,[2],0.5 µg/mL
same,Cp,[3],Bld
same,Drug excretion,[4],3.7 µg/g
same,Ratio,[5],7.4
same,MIC,[6],64 µg/mL
O=C(Nc1ncco1)c1cc(-c2cccc(F)c2)ccn1,Activity,[7],Non-Toxic
same,Ratio,[1],128
same,MIC,[2],0.5 µg/mL
same,MIC,[6],64 µg/mL
O=C(Nc1ncco1)c1cc(-c2ccc(OC(F)(F)F)cc2)ccn1,Ratio,[1],512
same,MIC,[2],0.25 µg/mL
same,MIC,[6],125 µg/mL
